Experimental data: PubChem BioAssay (NCI)
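Method: 48-hour compound exposure of cells in 96-well plates, five concentrations, linear interpolation of endpoints. Abbreviation: GI50, concentration required for 50% inhibition of growth. TGI: total growth inhibition.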

Tests used:
Assay in all cases: growth of human tumour cells (NCI), 48 h
[1] = system: UACC-257 melanoma
[2] = system: M14 melanoma
[3] = system: IGROV1 ovarian
[4] = system: SW-620 colon
[5] = system: TK-10 renal
[6] = system: SF-295 CNS
[7] = system: HCT-116 colon
[8] = system: SF-268 CNS
[9] = system: RPMI-8226 leukemia
[10] = system: NCI-H522 lung

Question: Which results are given for `Cn1nnnc1[N-]Cc1ccccc1.[Au+].c1ccc([PH+](c2ccccc2)c2ccccc2)cc1`?
Answer: GI50 [1]: 2.01 µM; TGI [1]: 7.78 µM; GI50 [2]: 1.67 µM; TGI [2]: 3.83 µM; GI50 [3]: 2.43 µM; TGI [3]: 8.16 µM; GI50 [4]: 2.19 µM; TGI [4]: 4.92 µM; GI50 [5]: 2.46 µM; TGI [5]: 5.02 µM; GI50 [6]: 4.45 µM; TGI [6]: 22.8 µM; GI50 [7]: 3.88 µM; TGI [7]: 13 µM; GI50 [8]: 3.45 µM; TGI [8]: 14 µM; GI50 [9]: 1.23 µM; TGI [9]: 4.37 µM

Question: Which results are given for `CC1(C)OC2C(=O)OC(COCc3ccccc3)C2O1` (configuration not stated)?
Answer: TGI [1]: > 100 µM; TGI [2]: > 100 µM; TGI [3]: > 100 µM; TGI [4]: > 100 µM; TGI [5]: > 100 µM; TGI [6]: > 100 µM; TGI [7]: > 100 µM; TGI [8]: > 100 µM; TGI [9]: > 100 µM

Question: Which TGI [1] does the source give for `Cn1cc(NC(=O)c2cc(NC(=O)CCCCCC(=O)Nc3cc(C(=O)Nc4cc(C(=O)NCCC(=N)N)n(C)c4)n(C)c3)cn2C)cc1C(=O)NCCC(=N)N` here?
Answer: > 100 µM

Question: And the TGI [2]?
Answer: > 100 µM

Question: What about the TGI [3] of the same compound?
Answer: > 100 µM

Question: And the TGI [4]?
Answer: > 100 µM

Question: And the TGI [5]?
Answer: > 100 µM

Question: And the TGI [6]?
Answer: > 100 µM

Question: And the TGI [7]?
Answer: > 100 µM

Question: And the TGI [8]?
Answer: > 100 µM

Question: `O=C1OCC2=Nc3cccc4cccc(c34)N12` was tested. Which TGI [1] did it give?
Answer: > 100 µM

Question: What about the TGI [2] of the same compound?
Answer: > 100 µM

Question: What about the TGI [3] of the same compound?
Answer: > 100 µM

Question: What about the TGI [4] of the same compound?
Answer: > 100 µM

Question: And the TGI [5]?
Answer: > 100 µM

Question: What about the TGI [6] of the same compound?
Answer: > 100 µM

Question: And the TGI [10]?
Answer: > 100 µM

Question: What about the TGI [7] of the same compound?
Answer: > 100 µM

Question: And the TGI [8]?
Answer: > 100 µM

Question: `CN(C)CCNC(=O)c1cccc(CO)c1[N+](=O)[O-]` was tested. Which TGI [1] did it give?
Answer: > 100 µM

Question: And the TGI [2]?
Answer: > 100 µM

Question: And the TGI [3]?
Answer: > 100 µM

Question: And the TGI [4]?
Answer: > 100 µM

Question: And the TGI [5]?
Answer: > 100 µM

Question: What about the TGI [6] of the same compound?
Answer: > 100 µM

Question: What about the TGI [10] of the same compound?
Answer: > 100 µM

Question: And the TGI [7]?
Answer: > 100 µM

Question: What about the TGI [8] of the same compound?
Answer: > 100 µM

Question: For `CC(C)(C)C([O-])=C1C(=O)c2ccccc2C1=O.CC(C)(C)C([O-])=C1C(=O)c2ccccc2C1=O.CC[O-].CC[O-].[Ti+4]`, which GI50 [1] is on record?
Answer: 30.4 µM

Question: And the TGI [1]?
Answer: 96.9 µM

Question: What about the GI50 [2] of the same compound?
Answer: 57.4 µM

Question: And the TGI [2]?
Answer: > 100 µM

Question: What about the GI50 [3] of the same compound?
Answer: 70.4 µM

Question: And the TGI [3]?
Answer: > 100 µM

Question: And the GI50 [4]?
Answer: 25.5 µM

Question: And the TGI [4]?
Answer: > 100 µM

Question: And the GI50 [6]?
Answer: 28.3 µM

Question: What about the TGI [6] of the same compound?
Answer: > 100 µM

Question: And the GI50 [10]?
Answer: 21.7 µM

Question: What about the TGI [10] of the same compound?
Answer: 54.2 µM

Question: And the GI50 [7]?
Answer: 37.7 µM

Question: And the TGI [7]?
Answer: > 100 µM

Question: What about the GI50 [8] of the same compound?
Answer: 70.6 µM

Question: What about the TGI [8] of the same compound?
Answer: > 100 µM

Question: With `CC(C)(C)N=CN1CCC(C(c2ccccc2)c2ccccc2)CC1` as the compound, how does the TGI [1] read?
Answer: > 100 µM

Question: And the TGI [3]?
Answer: > 100 µM

Question: And the TGI [4]?
Answer: > 100 µM

Question: What about the TGI [5] of the same compound?
Answer: > 100 µM

Question: And the TGI [6]?
Answer: > 100 µM

Question: What about the TGI [7] of the same compound?
Answer: > 100 µM

Question: And the TGI [8]?
Answer: > 100 µM

Question: And the TGI [9]?
Answer: > 100 µM

Question: How did the TGI [1] turn out when `CCOC(=O)c1c2ccc(/C=C/C(=O)OC)ccc-2c(C(=O)OCC)c1N` was run?
Answer: > 100 µM

Question: And the TGI [2]?
Answer: > 100 µM

Question: And the TGI [3]?
Answer: > 100 µM

Question: And the TGI [4]?
Answer: > 100 µM

Question: What about the TGI [5] of the same compound?
Answer: > 100 µM

Question: What about the TGI [6] of the same compound?
Answer: > 100 µM

Question: And the TGI [10]?
Answer: > 100 µM

Question: And the TGI [8]?
Answer: 9.68 µM

Question: With `ClCCn1cnc2c(SCc3ccccc3)ncnc21` as the compound, how does the GI50 [1] read?
Answer: 14.1 µM

Question: What about the TGI [1] of the same compound?
Answer: > 100 µM

Question: What about the GI50 [2] of the same compound?
Answer: 7.04 µM

Question: And the TGI [2]?
Answer: > 100 µM

Question: What about the GI50 [3] of the same compound?
Answer: 0.497 µM

Question: And the TGI [3]?
Answer: 10.7 µM

Question: What about the GI50 [4] of the same compound?
Answer: 3.14 µM

Question: What about the TGI [4] of the same compound?
Answer: > 100 µM

Question: And the GI50 [5]?
Answer: 0.924 µM

Question: What about the TGI [5] of the same compound?
Answer: > 100 µM

Question: What about the GI50 [6] of the same compound?
Answer: 3.12 µM

Question: And the TGI [6]?
Answer: > 100 µM

Question: What about the GI50 [7] of the same compound?
Answer: 0.381 µM

Question: What about the TGI [7] of the same compound?
Answer: 38.4 µM

Question: And the GI50 [8]?
Answer: 1.49 µM

Question: And the TGI [8]?
Answer: > 100 µM

Question: What about the GI50 [9] of the same compound?
Answer: 0.73 µM

Question: What about the TGI [9] of the same compound?
Answer: 35.5 µM

Question: Which GI50 [1] does the source give for `CC1=CC[C@@H]2C(C)(C)[C@@H](O)CC[C@@]2(C)[C@@H]1COc1ccc2ccc(=O)oc2c1` here?
Answer: 12.4 µM

Question: What about the TGI [1] of the same compound?
Answer: 26.2 µM

Question: What about the GI50 [2] of the same compound?
Answer: 7.2 µM

Question: What about the TGI [2] of the same compound?
Answer: 21.3 µM

Question: And the GI50 [3]?
Answer: 6.03 µM

Question: What about the TGI [3] of the same compound?
Answer: 22 µM

Question: And the GI50 [4]?
Answer: 9.94 µM

Question: And the TGI [4]?
Answer: 27.2 µM

Question: And the GI50 [5]?
Answer: 12.5 µM

Question: And the TGI [5]?
Answer: 26.4 µM

Question: And the GI50 [6]?
Answer: 10.8 µM

Question: And the TGI [6]?
Answer: 23.1 µM

Question: What about the GI50 [10] of the same compound?
Answer: 3.81 µM

Question: What about the TGI [10] of the same compound?
Answer: 22.1 µM

Question: And the GI50 [7]?
Answer: 4.6 µM

Question: What about the TGI [7] of the same compound?
Answer: 18.7 µM

Question: And the GI50 [8]?
Answer: 6.5 µM

Question: And the TGI [8]?
Answer: 26.3 µM

Question: How did the TGI [1] turn out when `CCCCCCCCCCCCC(SCCNC(=O)CCNC(=O)C(O)C(C)(C)COP(=O)(O)OP(=O)(O)OCC1OC(n2cnc3c(N)ncnc32)C(O)C1OP(=O)(O)O)C(=O)NCC(N)=O` (configuration not stated) was run?
Answer: > 100 µM

Question: And the TGI [2]?
Answer: > 100 µM

Question: And the TGI [3]?
Answer: > 100 µM

Question: What about the TGI [4] of the same compound?
Answer: > 100 µM

Question: What about the TGI [5] of the same compound?
Answer: > 100 µM

Question: And the TGI [6]?
Answer: > 100 µM

Question: And the TGI [10]?
Answer: > 100 µM

Question: And the TGI [7]?
Answer: > 100 µM

Question: What about the TGI [8] of the same compound?
Answer: > 100 µM

Question: Which results are given for `Cc1ccc(S(=O)(=O)NCCN2c3nc4ccccc4cc3Sc3cc4ccccc4nc32)cc1`?
Answer: GI50 [1]: > 100 µM; TGI [1]: > 100 µM; GI50 [2]: > 100 µM; TGI [2]: > 100 µM; GI50 [3]: 7.06 µM; TGI [3]: > 100 µM; GI50 [4]: > 100 µM; TGI [4]: > 100 µM; GI50 [5]: 28.6 µM; TGI [5]: > 100 µM; GI50 [6]: 4.04 µM; TGI [6]: 18.5 µM; GI50 [10]: 44.4 µM; TGI [10]: > 100 µM; GI50 [7]: 7.11 µM; TGI [7]: > 100 µM; GI50 [8]: 11.4 µM; TGI [8]: > 100 µM

Question: `O=C1c2cccc3cc([N+](=O)[O-])cc(c23)C(=O)N1CCCN1CCN(CCCN2C(=O)c3cccc4cc([N+](=O)[O-])cc(c34)C2=O)CC1` was tested. Which TGI [1] did it give?
Answer: 8.97 µM

Question: What about the TGI [2] of the same compound?
Answer: 4.87 µM

Question: And the TGI [3]?
Answer: 15.4 µM

Question: And the TGI [4]?
Answer: > 100 µM

Question: And the TGI [5]?
Answer: 16 µM

Question: What about the TGI [6] of the same compound?
Answer: 12.4 µM

Question: And the TGI [7]?
Answer: 1.34 µM

Question: What about the TGI [9] of the same compound?
Answer: > 100 µM

Question: Which TGI [1] does the source give for `COC(=O)C12C3C4C1C1C2C3C41I` (configuration not stated) here?
Answer: > 100 µM

Question: What about the TGI [2] of the same compound?
Answer: > 100 µM

Question: And the TGI [3]?
Answer: > 100 µM

Question: And the TGI [4]?
Answer: > 100 µM

Question: And the TGI [5]?
Answer: > 100 µM

Question: And the TGI [6]?
Answer: > 100 µM

Question: And the TGI [8]?
Answer: > 100 µM

Question: And the TGI [9]?
Answer: > 100 µM

Question: How did the TGI [1] turn out when `CCCCCCCCCCCC(=O)C1=C(O)C(O)CCC1=O` (configuration not stated) was run?
Answer: 37.2 µM

Question: What about the TGI [3] of the same compound?
Answer: 82.6 µM

Question: And the TGI [4]?
Answer: 60 µM

Question: What about the TGI [5] of the same compound?
Answer: 49 µM

Question: And the TGI [6]?
Answer: 30.5 µM

Question: What about the TGI [10] of the same compound?
Answer: 33.1 µM

Question: And the TGI [7]?
Answer: 38.5 µM

Question: What about the TGI [8] of the same compound?
Answer: > 100 µM
